Publication PMC10056611, “Synthesis and Biological Evaluation of 3-Amino-4,4-Dimethyl Lithocholic Acid Derivatives as Novel, Selective, and Cellularly Active Allosteric SHP1 Activators” (Molecules, 2023)

Tests used:
[1] = tested on: acute promyelocytic leukemia (APL) cell line NB4; assay: CCK8 cell viability assay, NB4; assay type: cell-based; settings: Homo sapiens, NB-4, NB4 cells, 72 h
Description: (§1) Acute lymphoblastic leukemia (ALL) cell line RS4;11 (2.5 × 10^4 cells per well), acute promyelocytic leukemia (APL) cell line NB4 (1 × 10^4 cells per well), and non-small cell lung cancer (NSCLC) cell line NCI-H1299 (1.5 × 10^3 cells per well) were seeded into 96-well plates. After treatment with different concentrations of drugs, the cells were incubated in quadruple for 72 h. Thereafter, a 10 μL CCK8 solution was added to each well. After a 3 h incubation at 37 °C, the plates were read for absorbance at 450 nm and 650 nm using a SpectraMax Molecular Devices microplate reader. The final data were calibrated by OD450 nm-OD650 nm. The inhibition rates of proliferation were calculated with the following equation:Inhibition ratio = (ODDMSO-ODCompd)/(ODDMSO-ODblank) × 100%.(1)
(§2) The concentrations of the compounds that inhibited cell growth by 50% (IC50) were calculated using GraphPad Prism version 5.0. NVP-2 was used as a positive control.

[2] = biological target: SHP1 (Homo sapiens, UniProt P29350); assay: SHP1 enzyme assay (DiFMUP fluorogenic substrate), activation; assay type: biochemical
Source text: The SHP1-activating effects of the synthetic compounds were examined by the 6,8-difluoro-4-methylumbelliferyl phosphate (DiFMUP) assay.
(§3) The proteins SHP1 and SHP2, containing a GST-tag, were expressed in E. coli. 6,8-Difluoro-4-methylumbelliferyl phosphate (DiFMUP) was used as the fluorogenic substrate. Fluorescence data were collected by the Envision (PerkinElmer, Waltham, MA, USA) plate reader, using excitation and emission wavelengths of 358 and 455 nm, respectively. A sigmoidal dose-response curve was fitted to the data, and the EC50 values were calculated using GraphPad Prism. In the data processing, the fitting and curves were calculated using nonlinear regression, and the fold value of the compound was calculated using the software GraphPad Prism 8. The folds were obtained according to the equation: Y = Bottom + (Top-Bottom)/(1 + 10^((LogEC50-X) × HillSlope)). The data represent mean values ± standard error of the mean (SEM) of eight-point experiments, each performed in triplicates from three independent experiments.

[3] = tested on: acute lymphoblastic leukemia (ALL) cell line RS4;11; assay: CCK8 cell viability assay, RS4;11; assay type: cell-based; settings: Homo sapiens, RS4-11, 72 h, RS4;11 cells
Description: as §1, §2

[4] = tested on: non-small cell lung cancer (NSCLC) cell line NCI-H1299; assay: CCK8 cell viability assay, NCI-H1299; assay type: cell-based; settings: Homo sapiens, NCI-H1299 cells, 72 h
Description: as §1, §2

[5] = biological target: T1, SHP2 (Homo sapiens, UniProt Q06124); assay: SHP2 enzyme assay (DiFMUP fluorogenic substrate), activation; assay type: biochemical
T1 sequence (Q06124 1-593): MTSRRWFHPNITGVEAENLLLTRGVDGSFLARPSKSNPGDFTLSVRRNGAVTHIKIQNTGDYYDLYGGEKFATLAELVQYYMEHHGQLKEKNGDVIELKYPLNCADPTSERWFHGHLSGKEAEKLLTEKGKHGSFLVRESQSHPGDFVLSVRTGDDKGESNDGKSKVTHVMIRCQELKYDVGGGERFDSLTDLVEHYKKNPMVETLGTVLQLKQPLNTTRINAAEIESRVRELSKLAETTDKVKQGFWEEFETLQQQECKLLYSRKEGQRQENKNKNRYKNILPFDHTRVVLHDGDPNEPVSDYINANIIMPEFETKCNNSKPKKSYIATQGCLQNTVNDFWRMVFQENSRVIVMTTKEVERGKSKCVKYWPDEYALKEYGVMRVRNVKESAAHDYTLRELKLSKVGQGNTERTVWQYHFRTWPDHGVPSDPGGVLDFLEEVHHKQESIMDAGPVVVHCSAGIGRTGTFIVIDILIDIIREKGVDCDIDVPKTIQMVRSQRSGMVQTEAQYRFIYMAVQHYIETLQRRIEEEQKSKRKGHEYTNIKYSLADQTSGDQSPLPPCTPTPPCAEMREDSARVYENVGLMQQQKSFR
Description: as §3

Chain of SHP1 (P29350 whole entry): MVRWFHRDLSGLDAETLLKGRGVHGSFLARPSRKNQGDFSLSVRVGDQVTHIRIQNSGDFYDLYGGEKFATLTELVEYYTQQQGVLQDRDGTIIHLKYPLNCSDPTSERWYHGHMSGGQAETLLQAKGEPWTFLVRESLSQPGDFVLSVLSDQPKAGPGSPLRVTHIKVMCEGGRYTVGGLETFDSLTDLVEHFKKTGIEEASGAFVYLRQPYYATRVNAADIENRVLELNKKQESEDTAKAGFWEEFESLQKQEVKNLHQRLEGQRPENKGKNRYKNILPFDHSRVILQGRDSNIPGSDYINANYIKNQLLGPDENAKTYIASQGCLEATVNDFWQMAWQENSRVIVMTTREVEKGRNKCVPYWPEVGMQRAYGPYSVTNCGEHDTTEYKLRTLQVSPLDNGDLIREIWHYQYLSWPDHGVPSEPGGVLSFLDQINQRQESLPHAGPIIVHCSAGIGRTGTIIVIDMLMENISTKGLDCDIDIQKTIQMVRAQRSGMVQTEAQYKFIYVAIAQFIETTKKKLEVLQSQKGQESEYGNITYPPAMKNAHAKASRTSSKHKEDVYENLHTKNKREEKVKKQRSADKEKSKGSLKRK

C[C@H](COc1ccc(NC(=O)Nc2ccc(Cl)c(C(F)(F)F)c2)cc1)[C@H]1CCC2C3CC=C4C(C)(C)C(N)CC[C@]4(C)C3CC[C@@]21C (stereo partly drawn) [Compound 5ba]
IC50 [1]: 3.74 ± 0.39 µM
EC50 ([2]; DiFMUP assay, mean ± SEM): 1.54 ± 0.24 µM
Maximum Activation Fold ([2]; DiFMUP assay, mean ± SEM): 7.63 ± 0.20 fold
increase in potency compared to 5aw ([2]; SHP1 EC50 ratio vs 5aw): ~23 times
melting point: 197.1 to 198.6 °C
IC50 [3]: 4 ± 0.22 µM
IC50 [4]: 5.51 ± 0.23 µM
EC50 ([5]; DiFMUP assay): > 50 µM
selectivity for SHP1 over SHP2 ([5]; ratio of EC50 values, SHP2 vs SHP1): more than 32 fold
